Values of other authors as cited in patent publication US6114314A (priority 1994, dated 2000).

How the values were obtained:
macrophages = settings: tissue culture
experiment neoplasm = settings: with Interleukin 2
[1] = in cross-linked hyaluronic acid gel
rabbit eye = settings: in vivo

| Compound | malfunction of macrophages (block due to excessive prostaglandin) (macrophages) | also measured |
| --- | --- | --- |
| CC(=O)Oc1ccccc1C(=O)O [ASA, acetylsalicylic acid] | can be altered |  |
| COc1ccc2c(c1)c(CC(=O)O)c(C)n2C(=O)c1ccc(Cl)cc1 [indomethacin] | can be altered | cure of experiment neoplasm (experiment neoplasm): could effect a cure |
| COc1ccc2cc([C@H](C)C(=O)O)ccc2c1 [naproxen] | can be altered |  |
| heparin |  | antithrombogenic activity [1]: retained its antithrombogenic activity |
| sodium hyaluronate [sodium hyaluronate (LifeCore)] |  | Biological Safety Testing, Rabbit Ocular Toxicity Test (rabbit eye): Passes |
